Results: patent publication US6465457B1 (priority 1991, dated 2002)
Where two headings read alike, the source gives them in different places.

Tests used:
Format in all cases: in vivo
[1] = system: Pyricularia oryzae (Rice); conditions: one or two days before inoculation
Septoria nodorum (Wheat) = assay: Foliar fungal disease test on plants: Septoria nodorum (Wheat); conditions: one or two days before inoculation
[2] = system: Puccinia recondita (Wheat); assay: Foliar fungal disease test on plants: Puccinia recondita (Wheat)
[3] = system: Thanatephorus cucumeries (Rice); assay: Foliar fungal disease test on plants: Thanatephorus cucumeries (Rice); conditions: one or two days before inoculation
[4] = system: Plasmopara viticola (Vines); assay: Foliar fungal disease test on plants: Plasmopara viticola (Vines); conditions: one or two days before inoculation
[5] = system: Erysiphe graminis tritici (Wheat); assay: Foliar fungal disease test on plants: Erysiphe graminis tritici (Wheat); conditions: plants inoculated 24 hours before treatment
[6] = system: Phytophthora infestans (Tomatoes); conditions: one or two days before inoculation
[7] = system: Venturia inaequalis (Apples); assay: Foliar fungal disease test on plants: Venturia inaequalis (Apples); conditions: one or two days before inoculation
[8] = 100 ppm a.i. foliar spray or root drench (approx. 40 ppm in dry soil)
[9] = 100 ppm a.i. foliar spray or root drench, plants inoculated with Puccinia recondita 48 hours before treatment
[10] = 10 ppm foliar spray only, plants inoculated with Puccinia recondita 48 hours before treatment

Structure (SMILES)	POCO (Percentage of Control) disease level, Pyricularia oryzae (Rice) [1, 8]	POCO (Percentage of Control) disease level, Septoria nodorum (Wheat) (Septoria nodorum (Wheat); [8])	POCO (Percentage of Control) disease level, Puccinia recondita (Wheat) [2, 9]	POCO (Percentage of Control) disease level, Thanatephorus cucumeries (Rice) [3, 8]	POCO (Percentage of Control) disease level, Plasmopara viticola (Vines) [4, 8]	POCO (Percentage of Control) disease level, Erysiphe graminis tritici (Wheat) [5, 8]	POCO (Percentage of Control) disease level, Phytophthora infestans (Tomatoes) [6, 8]	POCO (Percentage of Control) disease level, Venturia inaequalis (Apples) [7, 8]	POCO (Percentage of Control) disease level, Pyricularia oryzae (Rice) ([1]; 10 ppm foliar spray only)	POCO (Percentage of Control) disease level, Septoria nodorum (Wheat) (Septoria nodorum (Wheat); 10 ppm foliar spray only)	POCO (Percentage of Control) disease level, Puccinia recondita (Wheat) ([2]; 10 ppm foliar spray only, one or two days before inoculation)	POCO (Percentage of Control) disease level, Thanatephorus cucumeries (Rice) ([3]; 10 ppm foliar spray only)	POCO (Percentage of Control) disease level, Plasmopara viticola (Vines) ([4]; 10 ppm foliar spray only)	POCO (Percentage of Control) disease level, Erysiphe graminis tritici (Wheat) ([5]; 10 ppm foliar spray only)	POCO (Percentage of Control) disease level, Phytophthora infestans (Tomatoes) ([6]; 10 ppm foliar spray only)	POCO (Percentage of Control) disease level, Venturia inaequalis (Apples) ([7]; 10 ppm foliar spray only)	POCO (Percentage of Control) disease level, Puccinia recondita (Wheat) ([2]; 100 ppm a.i. foliar spray or root drench (approx. 40 ppm in dry soil), one or two days before inoculation)	POCO (Percentage of Control) disease level, Puccinia recondita (Wheat) [2, 10]
COC=C(C(=O)OC)c1ccccc1COC(=O)Nc1c(F)cccc1F [23 (1)]	30 (30 = 20.1-30% disease present)	30 (30 = 20.1-30% disease present)	30+ (30 = 20.1-30% disease present)	0 (0 = 0% disease present)	0 (0 = 0% disease present)	0 (0 = 0% disease present)	90 (90 and 94 = 60.1-100% disease present)	0 (0 = 0% disease present)	–	–	–	–	–	–	–	–	–	–
C=CCNC(=O)OCc1ccccc1C(=COC)C(=O)OC [20 (1)]	20 (20 and 24 = 10.1-20% disease present)	90 (90 and 94 = 60.1-100% disease present)	3+ (3 = 1.1-3% disease present)	90 (90 and 94 = 60.1-100% disease present)	90 (90 and 94 = 60.1-100% disease present)	20 (20 and 24 = 10.1-20% disease present)	60 (60 = 30.1-60% disease present)	5 (5 = 3.1-5% disease present)	–	–	–	–	–	–	–	–	–	–
COC=C(C(=O)OC)c1ccccc1COC(=S)Nc1cccc(F)c1 [8 (6)]	–	–	–	–	–	–	–	–	30 (30 = 20.1-30% disease present)	90 (90 and 94 = 60.1-100% disease present)	90 (90 and 94 = 60.1-100% disease present)	90 (90 and 94 = 60.1-100% disease present)	60 (60 = 30.1-60% disease present)	90 (90 and 94 = 60.1-100% disease present)	90 (90 and 94 = 60.1-100% disease present)	60 (60 = 30.1-60% disease present)	–	–
COC=C(C(=O)OC)c1ccccc1COC(=O)N(C)c1ccc(F)cc1 [13 (2)]	0 (0 = 0% disease present)	0 (0 = 0% disease present)	0+ (0 = 0% disease present)	0 (0 = 0% disease present)	0 (0 = 0% disease present)	0 (0 = 0% disease present)	0 (0 = 0% disease present)	0 (0 = 0% disease present)	–	–	–	–	–	–	–	–	–	–
COC=C(C(=O)OC)c1ccccc1COC(=O)N(C)c1ccccc1C(F)(F)F [18 (2)]	60 (60 = 30.1-60% disease present)	90 (90 and 94 = 60.1-100% disease present)	90+ (90 and 94 = 60.1-100% disease present)	60 (60 = 30.1-60% disease present)	3 (3 = 1.1-3% disease present)	60 (60 = 30.1-60% disease present)	90 (90 and 94 = 60.1-100% disease present)	3 (3 = 1.1-3% disease present)	–	–	–	–	–	–	–	–	–	–
COC=C(C(=O)OC)c1ccccc1COC(=O)N(C)c1cccc(SC)c1 [10 (2)]	0 (0 = 0% disease present)	0 (0 = 0% disease present)	0+ (0 = 0% disease present)	20 (20 and 24 = 10.1-20% disease present)	0 (0 = 0% disease present)	0 (0 = 0% disease present)	20 (20 and 24 = 10.1-20% disease present)	0 (0 = 0% disease present)	–	–	–	–	–	–	–	–	–	–
CCN(C(=O)OCc1ccccc1C(=COC)C(=O)OC)c1ccc(F)c([N+](=O)[O-])c1 [105 (3)]	60 (60 = 30.1-60% disease present)	90 (90 and 94 = 60.1-100% disease present)	90+ (90 and 94 = 60.1-100% disease present)	20 (20 and 24 = 10.1-20% disease present)	0 (0 = 0% disease present)	90 (90 and 94 = 60.1-100% disease present)	0 (0 = 0% disease present)	0 (0 = 0% disease present)	–	–	–	–	–	–	–	–	–	–
COC=C(C(=O)OC)c1ccccc1COC(=O)N(C)c1cccc(C(F)(F)F)c1 [2 (2)]	5 (5 = 3.1-5% disease present)	0 (0 = 0% disease present)	–	30 (30 = 20.1-30% disease present)	0 (0 = 0% disease present)	0 (0 = 0% disease present)	90 (90 and 94 = 60.1-100% disease present)	0 (0 = 0% disease present)	–	–	–	–	–	–	–	–	0 (0 = 0% disease present)	–
COC=C(C(=O)OC)c1ccccc1COC(=O)Nc1ccccc1Cl [12 (1)]	5 (5 = 3.1-5% disease present)	10 (10 = 5.1-10% disease present)	10+ (10 = 5.1-10% disease present)	30 (30 = 20.1-30% disease present)	0 (0 = 0% disease present)	0 (0 = 0% disease present)	30 (30 = 20.1-30% disease present)	0 (0 = 0% disease present)	–	–	–	–	–	–	–	–	–	–
CCN(C(=O)OCc1ccccc1C(=COC)C(=O)OC)c1ccc(F)cc1 [13 (3)]	0 (0 = 0% disease present)	0 (0 = 0% disease present)	0+ (0 = 0% disease present)	0 (0 = 0% disease present)	0 (0 = 0% disease present)	0 (0 = 0% disease present)	0 (0 = 0% disease present)	0 (0 = 0% disease present)	–	–	–	–	–	–	–	–	–	–
CNC(=O)C(=NOC)c1ccccc1COC(=O)Nc1ccccc1 [5 (65)]	–	–	–	–	–	–	–	–	30 (30 = 20.1-30% disease present)	90 (90 and 94 = 60.1-100% disease present)	–	90 (90 and 94 = 60.1-100% disease present)	90 (90 and 94 = 60.1-100% disease present)	30 (30 = 20.1-30% disease present)	90 (90 and 94 = 60.1-100% disease present)	90 (90 and 94 = 60.1-100% disease present)	–	90+ (90 and 94 = 60.1-100% disease present)
COC=C(C(=O)OC)c1ccccc1COC(=O)Nc1cccc(F)c1 [8 (1)]	–	–	–	–	–	–	–	–	10 (10 = 5.1-10% disease present)	90 (90 and 94 = 60.1-100% disease present)	–	90 (90 and 94 = 60.1-100% disease present)	90 (90 and 94 = 60.1-100% disease present)	60 (60 = 30.1-60% disease present)	90 (90 and 94 = 60.1-100% disease present)	0 (0 = 0% disease present)	–	0+ (0 = 0% disease present)
C#CCN(C(=O)OCc1ccccc1C(=COC)C(=O)OC)c1ccccc1OC [16 (15)]	0 (0 = 0% disease present)	10 (10 = 5.1-10% disease present)	60+ (60 = 30.1-60% disease present)	0 (0 = 0% disease present)	0 (0 = 0% disease present)	0 (0 = 0% disease present)	5 (5 = 3.1-5% disease present)	1 (1 = 0.1-1% disease present)	–	–	–	–	–	–	–	–	–	–
